US9271993B2, “Treatment of bacterial infectious diseases” (priority 2010, dated 2016)
Values after ≈ are worked out from the molar mass of the structure shown. Like-named read-outs stand apart in the source and are kept apart here.

Experiments:
[1] = system: clinical methicillin resistant Staphylococcus aureus (MRSA) isolates; assay: MIC against clinical MRSA isolates, LB microdilution assay; conditions: Staphylococcus aureus, MRSA
Procedure: Activity was assessed by determination of minimal inhibitory concentrations (MIC), as described in Pfister et al., Antimicrob. […] Cultures from single colonies were grown in LB medium and used for MIC tests in a microtiter plate format. Starting cultures contained 200 μl of bacterial cells at an optical density of 0.025 at 600 nm, and the respective drug was added in twofold series of dilution.

cytohybrid ribosomes = assay: Ribosomal drug susceptibility (MIC) of recombinant bacteria; set-up: MIC, cytohybrid ribosomes: unit not given beside the values; conditions: for MIC, cytohybrid ribosomes: Table 7, 72 h incubation
M. bolletii = assay: MIC against non-tuberculous rapidly-growing mycobacteria, microdilution; format: cell-based; conditions: Mycobacteroides abscessus, read-out: minimal inhibitory concentration (MIC)
Procedure: (§1) Activity of apramycin was assessed in standard microdilution assays and is expressed as minimal inhibitory concentration (MIC) in μg/ml.

M. abscessus = assay: as above; format: cell-based; conditions: Mycobacteroides abscessus; strain 500039/08 M. abscessus; read-out: minimal inhibitory concentration (MIC)
Procedure: as §1

M. massiliense = assay: as above; format: cell-based; conditions: Mycobacteroides abscessus, read-out: minimal inhibitory concentration (MIC)
Procedure: as §1

E. coli = assay: MIC against gram-negative bacteria; format: cell-based; conditions: Escherichia coli, read-out: MIC
Source text: Agents Chemother. 2003, 47:1496-1502.

bacterial ribosomes = assay: Ribosomal drug susceptibility (MIC) of recombinant bacteria; set-up: MIC, bacterial ribosomes: unit not given beside the values; conditions: for MIC, bacterial ribosomes: Table 7, 72 h incubation
mitohybrid ribosomes = assay: as above; set-up: MIC, mitohybrid ribosomes: unit not given beside the values; conditions: for MIC, mitohybrid ribosomes: Table 7, 72 h incubation
[2] = system: Cochlear explants from newborn mice; assay: Cochleatoxicity in vitro, hair cell loss in cochlear explants; format: cell-based
Procedure: FIG. 1: Cochleatoxicity in vitro
(a) Dose-response relationship of drug-induced hair cell loss in cochlear explants. Hair cell loss was quantified along the entire length of the explant and plotted against drug concentration. %=% outer hair cells missing.
Cochlear explants from newborn mice were treated with 0.5 mM aminoglycoside compound for 24 h; subsequently hair cell damage was assessed by epifluorescence microscopy.

[3] = General toxicity in guinea pigs; format: in vivo; conditions: for observations (general toxicity): once daily for 14 days, monitored additional 14 days
Source text: Guinea pigs received a systemic application of aminoglycosides once daily in the dosing indicated in Table 9 for 14 days and were then monitored for an additional 14 days.

M. avium-intracellulare = assay: Drug susceptibility of non-tuberculous slow-growing mycobacteria, MGIT960; format: cell-based
M. kansasii = assay: as above; format: cell-based
[4] = guinea pig
Source text: “Treshold shift” is the difference in auditory threshold before and three weeks after treatment.
Guinea pigs received a systemic application of aminoglycosides once daily in the dosing indicated for 14 days, and were allowed to rest for 14 days before post-treatment ABR was taken.

[5] = MRSA AG042, strain 101-06R Gm^R
[6] = strain 177217/10 M. massiliense
[7] = strain 186139/07 M. massiliense
[8] = strain 500044/09 M. massiliense
[9] = E. coli AG01, clin. isol. (Gm^S)
[10] = E. coli AG02, clin. isol (Gm^S)
[11] = E. coli AG03, clin. isol (Gm^R)
[12] = E. coli AG07, BM13/pIP135, resistance mechanism AAC(3)
[13] = E. coli AG08, BM13/pIP055, resistance mechanism ANT(2″)
[14] = E. coli AG09, AAC(6′)-1B, resistance mechanism AAC(6′)
[15] = E. coli AG36, HB101/pAT197, resistance mechanism ANT(4′)
[16] = E. coli AG37, HB101/pAG21-1, resistance mechanism APH(3′)

Compound: NC[C@H]1O[C@H](O[C@H]2[C@H](O)[C@@H](O[C@H]3O[C@H](CO)[C@@H](O)[C@H](N)[C@H]3O)[C@H](N)C[C@@H]2N)[C@H](N)C[C@@H]1O [Tobramycin]
- MIC [1]: 128 to 256 µg/mL (≈ 274 to 548 µM)
- MIC ([1]; MRSA AG038, strain 70-26S Gm^S): 0.5 to 1 µg/mL (≈ 1.07 to 2.14 µM)
- MIC ([1]; MRSA AG040, strain 87-26S Gm^S): ≥ 256 µg/mL
- MIC ([1]; MRSA AG041, strain 98-25S Gm^S): 0.5 to 1 µg/mL (≈ 1.07 to 2.14 µM)
- MIC [1, 5]: ≥ 256 µg/mL
- MIC ([1]; MRSA AG043, strain 01-08R Gm^R): 32 µg/mL (≈ 68.4 µM)
- MIC ([1]; MRSA AG044, strain 07-12R Gm^R): 8 µg/mL (≈ 17.1 µM)
- MIC ([1]; MRSA AG045, strain 08-12R Gm^R): 8 µg/mL (≈ 17.1 µM)
- MIC ([1]; MRSA AG047, strain 18-06R Gm^R): ≥ 256 µg/mL
- MIC ([1]; MRSA AG048, strain 20-06R Gm^R): ≥ 256 µg/mL
- MIC ([1]; MRSA AG049, strain 23-12R Gm^R): 8 to 16 µg/mL (≈ 17.1 to 34.2 µM)
- MIC ([1]; MRSA AG050, strain 31-06R Gm^R): 32 to 64 µg/mL (≈ 68.4 to 137 µM)
- MIC ([1]; MRSA AG051, strain 36-06R Gm^R): 32 to 64 µg/mL (≈ 68.4 to 137 µM)
- MIC ([1]; MRSA AG052, strain 53-14I Gm^R): 8 to 16 µg/mL (≈ 17.1 to 34.2 µM)
- MIC ([1]; MRSA AG053, strain 56-06R Gm^R): 16 to 32 µg/mL (≈ 34.2 to 68.4 µM)
- MIC, cytohybrid ribosomes (cytohybrid ribosomes): 512
- MIC (M. bolletii; strain 179639/10 M. bolletii): 32 µg/mL (≈ 68.4 µM)
- MIC (M. bolletii; strain 181739/08 M. bolletii): 32 µg/mL (≈ 68.4 µM)
- MIC (M. bolletii; strain 183177/08 M. bolletii): 16 µg/mL (≈ 34.2 µM)
- MIC (M. abscessus): 4 µg/mL (≈ 8.56 µM)
- MIC (M. massiliense; [6]): 32 µg/mL (≈ 68.4 µM)
- MIC (M. massiliense; [7]): 16 µg/mL (≈ 34.2 µM)
- MIC (M. massiliense; [8]): 8 µg/mL (≈ 17.1 µM)
- MIC (E. coli; [9]): 4 to 8 µg/mL (≈ 8.56 to 17.1 µM)
- MIC (E. coli; [10]): 2 µg/mL (≈ 4.28 µM)
- MIC (E. coli; [11]): 32 µg/mL (≈ 68.4 µM)
- MIC (E. coli; E. coli AG06, BM13): 0.5 µg/mL (≈ 1.07 µM)
- MIC (E. coli; [12]): 4 µg/mL (≈ 8.56 µM)
- MIC (E. coli; [13]): 8 to 64 µg/mL (≈ 17.1 to 137 µM)
- MIC (E. coli; [14]): 64 to 128 µg/mL (≈ 137 to 274 µM)
- MIC (E. coli; [15]): 16 to 32 µg/mL (≈ 34.2 to 68.4 µM)
- MIC (E. coli; [16]): 1 to 2 µg/mL (≈ 2.14 to 4.28 µM)
- MIC, bacterial ribosomes (bacterial ribosomes): 1
- MIC, mitohybrid ribosomes (mitohybrid ribosomes): 128

Compound: CNC1C(OC2OC(CO)C(N)C(O)C2O)OC2CC(N)C(OC3C(N)CC(N)C(O)C3O)OC2C1O (centres unmarked) [Apramycin]
- In vitro cochleatoxicity (drug-induced hair cell loss in cochlear explants, dose-response) [2]: significantly less than that of gentamicin
- Hair cell count ([2]; mouse, 24 h, 0.5 mM): no hair cells missing (<5%)
- inner and outer hair cells missing / lost ([2]; mouse, 24 h, 0.5 mM): < 5%
- observations (general toxicity) ([3]; 152 mg/kg base (132 mg/kg gentamicin base equivalent)): normal weight gain
- observations (general toxicity) ([3]; 184 mg/kg base (160 mg/kg gentamicin base equivalent)): normal weight gain
- observations (general toxicity) ([3]; 217 mg/kg base (188 mg/kg gentamicin base equivalent)): normal weight gain
- observations (general toxicity) ([3]; 355 mg/kg base (309 mg/kg gentamicin base equivalent)): less weight gain
- Kidney histopathology, interpretation ([3]; 432 mg/kg): Mild, multifocal interstitial lymphoplasmacytic inflammation
- observations (general toxicity) ([3]; 432 mg/kg base (376 mg/kg gentamicin base equivalent)): less weight gain
- Kidney histopathology, renal mass affected in the sections ([3]; 432 mg/kg, lymphoplasmacytic aggregates in the renal interstitium): less than 5%
- Kidney histopathology, interpretation ([3]; 649 mg/kg): Mild, multifocal tubular nephrosis
- observations (general toxicity) ([3]; 649 mg/kg base (564 mg/kg gentamicin base equivalent)): less weight gain
- Kidney histopathology, renal mass affected in the sections ([3]; 649 mg/kg, foci of tubular degeneration and regeneration in the superficial cortex): less than 5%
- necropsy findings at the end of the experiment ([3]; one animal each at 432 and 649 mg/kg): no significant lesions or gross findings were observed
- MIC ([1]; MRSA AG038, strain 70-26S Gm^S): 8 µg/mL (≈ 14.8 µM)
- MIC ([1]; MRSA AG040, strain 87-26S Gm^S): 8 µg/mL (≈ 14.8 µM)
- MIC ([1]; MRSA AG041, strain 98-25S Gm^S): 8 µg/mL (≈ 14.8 µM)
- MIC [1, 5]: 8 µg/mL (≈ 14.8 µM)
- MIC ([1]; MRSA AG043, strain 01-08R Gm^R): 16 to 32 µg/mL (≈ 29.7 to 59.3 µM)
- MIC ([1]; MRSA AG044, strain 07-12R Gm^R): 16 µg/mL (≈ 29.7 µM)
- MIC ([1]; MRSA AG045, strain 08-12R Gm^R): 8 to 16 µg/mL (≈ 14.8 to 29.7 µM)
- MIC ([1]; MRSA AG046, strain 12-06R Gm^R): 8 to 16 µg/mL (≈ 14.8 to 29.7 µM)
- MIC ([1]; MRSA AG047, strain 18-06R Gm^R): 8 to 16 µg/mL (≈ 14.8 to 29.7 µM)
- MIC ([1]; MRSA AG048, strain 20-06R Gm^R): 8 to 16 µg/mL (≈ 14.8 to 29.7 µM)
- MIC ([1]; MRSA AG049, strain 23-12R Gm^R): 8 to 16 µg/mL (≈ 14.8 to 29.7 µM)
- MIC ([1]; MRSA AG050, strain 31-06R Gm^R): 4 to 8 µg/mL (≈ 7.41 to 14.8 µM)
- MIC ([1]; MRSA AG051, strain 36-06R Gm^R): 8 µg/mL (≈ 14.8 µM)
- MIC ([1]; MRSA AG052, strain 53-14I Gm^R): 8 µg/mL (≈ 14.8 µM)
- MIC ([1]; MRSA AG053, strain 56-06R Gm^R): 8 µg/mL (≈ 14.8 µM)
- MIC, cytohybrid ribosomes (cytohybrid ribosomes): >1024
- MIC, bacteria with cytohybrid ribosome (cytohybrid ribosomes; Table 10): >256.0 µg/mL
- MIC (M. bolletii; strain 179639/10 M. bolletii): 4 µg/mL (≈ 7.41 µM)
- MIC (M. bolletii; strain 181739/08 M. bolletii): 4 µg/mL (≈ 7.41 µM)
- MIC (M. bolletii; strain 183177/08 M. bolletii): 2 µg/mL (≈ 3.71 µM)
- MIC (M. abscessus): 0.5 µg/mL (≈ 0.927 µM)
- MIC (M. massiliense; [6]): 4 µg/mL (≈ 7.41 µM)
- MIC (M. massiliense; [7]): 4 µg/mL (≈ 7.41 µM)
- MIC (M. massiliense; [8]): 2 µg/mL (≈ 3.71 µM)
- Activity (resistant/susceptible) (M. avium-intracellulare; strain 182034/06 M. avium-intracellulare, 1 μg/ml): R
- Activity (resistant/susceptible) (M. avium-intracellulare; strain 182034/06 M. avium-intracellulare, 4 μg/ml): S
- Activity (resistant/susceptible) (M. avium-intracellulare; strain 182034/06 M. avium-intracellulare, 10 μg/ml): S
- Activity (resistant/susceptible) (M. avium-intracellulare; strain 182124/07 M. avium-intracellulare, 1 μg/ml): R
- Activity (resistant/susceptible) (M. avium-intracellulare; strain 182124/07 M. avium-intracellulare, 4 μg/ml): S
- Activity (resistant/susceptible) (M. avium-intracellulare; strain 182124/07 M. avium-intracellulare, 10 μg/ml): S
- Activity (resistant/susceptible) (M. avium-intracellulare; strain 182550/07 M. avium-intracellulare, 1 μg/ml): R
- Activity (resistant/susceptible) (M. avium-intracellulare; strain 182550/07 M. avium-intracellulare, 4 μg/ml): S
- Activity (resistant/susceptible) (M. avium-intracellulare; strain 182550/07 M. avium-intracellulare, 10 μg/ml): S
- MIC (E. coli; [9]): 16 µg/mL (≈ 29.7 µM)
- MIC (E. coli; [10]): 16 to 32 µg/mL (≈ 29.7 to 59.3 µM)
- MIC (E. coli; [11]): 16 to 32 µg/mL (≈ 29.7 to 59.3 µM)
- MIC (E. coli; E. coli AG06, BM13): 4 µg/mL (≈ 7.41 µM)
- MIC (E. coli; [12]): 8 µg/mL (≈ 14.8 µM)
- MIC (E. coli; [13]): 4 µg/mL (≈ 7.41 µM)
- MIC (E. coli; [14]): 8 µg/mL (≈ 14.8 µM)
- MIC (E. coli; [15]): 4 µg/mL (≈ 7.41 µM)
- MIC (E. coli; [16]): 4 µg/mL (≈ 7.41 µM)
- Activity (resistant/susceptible) (M. kansasii; strain 177227/06 M. kansasii, 1 μg/ml): R
- Activity (resistant/susceptible) (M. kansasii; strain 177227/06 M. kansasii, 4 μg/ml): S
- Activity (resistant/susceptible) (M. kansasii; strain 177227/06 M. kansasii, 10 μg/ml): S
- Activity (resistant/susceptible) (M. kansasii; strain 180235/06 M. kansasii, 1 μg/ml): R
- Activity (resistant/susceptible) (M. kansasii; strain 180235/06 M. kansasii, 4 μg/ml): S
- Activity (resistant/susceptible) (M. kansasii; strain 180235/06 M. kansasii, 10 μg/ml): S
- MIC, bacterial ribosomes (bacterial ribosomes): 1-2
- MIC, wild type bacteria (bacterial ribosomes; Table 10): 1.0 to 2.0 µg/mL
- MIC, mitohybrid ribosomes (mitohybrid ribosomes): 1024
- MIC, bacteria with mitohybrid ribosome (mitohybrid ribosomes; Table 10): >256.0 µg/mL
- in vivo auditory response (auditory brain stem response, threshold shift at 12 kHz) [4]: substantially less affected
